Source: patent US20160000750A1, “COMBINATION OF EGCG OR METHYLATED EGCG AND A PDE INHIBITOR” (KYUSHU UNIVERSITY, NATIONAL UNIVERSITY CORPORATION, priority 2010, published 2016)

Assays:
[1] = system: human prostate cancer cell line, PC3; assay: Trypan blue cell viability and viable cell count, PC3; type: cell-based; details: vardenafil 5 μM, EGCG 10 μM added after 2 hours, 96 hours
Experimental: A human prostate cancer cell line, PC3, was subcultured in an RPMI 1640 medium supplemented with 10% fetal calf serum (FCS) at 37° C. under vapor-saturated 5% CO2 conditions. The cells were cultured in the logarithmic growth phase. The RPMI 1640 medium used in the culture was prepared by suspending 10.4 g of an RPMI 1640 medium, 2.38 g of HEPES, 0.5 vial of Penicillin G Potassium for Injection 200000 Unit, 0.1 vial of Streptomycin Sulfate for Injection 1 g, and 2.0 g of NaHCO3 in 1 L of ultrapure water, followed by filter sterilization. Subsequently, the RPMI 1640 medium was supplemented with fetal calf serum (FCS) and was used in cell culture. A trypan blue staining solution was prepared by suspending trypan blue in PBS at a concentration of 1% and was used in investigation of the anti-cancer activity of a combination of EGCG and vardenafil by trypan blue assay. The PBS used was prepared by dissolving 8.0 g of NaCl, 0.2 g of KCl, 1.15 g of Na2HPO4, and 0.2 g of KH2PO4 in 1 L of ultrapure water, followed by autoclave sterilization. […] After 10 minutes, the number of the cells was counted with a hemocytometer. Unstained cells were deemed as viable cells, and the cell viability was determined as a ratio of the number of unstained cells in trypan blue staining to the total number of cells. […]

[2] = system: acute myeloid leukemia cell line, HL60; assay: Apoptosis induction by Annexin V PI double staining, HL60; type: cell-based, human; details: vardenafil 5 μM, EGCG 5 μM, 96 hours
Experimental: A propidium iodide (PI) staining solution was prepared by suspending PI (Sigma Corporation) in PBS at a concentration of 50 μg/mL and was used in investigation of the anti-cancer activity of a combination of EGCG and vardenafil by Annexin V PI double staining. The PBS used was prepared by dissolving 8.0 g of NaCl, 0.2 g of KCl, 1.15 g of Na2HPO4, and 0.2 g of KH2PO4 in 1 L of ultrapure water, followed by autoclave sterilization. The Annexin V Binding Buffer used was prepared with 10 mM HEPES, 140 mM NaCl, and 2.5 mM CaCl2 (Wako Pure Chemical Industries, Ltd.) to be pH 7.4, followed by filter sterilization.
Cell lines, U266 and HL60, adjusted to be 5×10^4 cells/mL (U266) and 1×10^4 cells/mL (HL60), respectively, in an RPMI 1640 medium supplemented with 1% FCS were seeded in a 96-well plate. […]
The plate was returned to the incubator immediately after the addition of EGCG, followed by culturing for 96 hours. […] The supernatant was removed, and the cells were suspended in an Annexin V Binding uffer, and the number of the cells was counted with a hemocytometer. […] Subsequently, 400 μL of an Annexin V Binding Buffer was added thereto from above, and the cells were counted with a flow cytometer, FACS Caliber (Becton, Dickinson and Company). After compensation, the Annexin V Alexa Fluor 488 Conjugate was measured at FL 1, and the cells deemed to be positive were determined as apoptotic cells. […]

## (−)-epigallocatechin-3-O-gallate [EGCG]
[1]
  cell viability (cell-killing activity): any cytotoxicity was not observed
[2]; Annexin V PI double staining
  apoptosis-inducing activity (apoptotic cell ratio): apoptosis was induced
[2]; anti-67LR antibody MLuc5 20 μg/mL
  apoptosis-inducing activity under treatment with anti-67LR antibody: completely cancelled
